These are literature values, as cited in EP3888461A1, “NON-AQUEOUS DISPERSIONS COMPRISING INHIBITORS OF HYDROXYPHENYLPYRUVATE-DIOXYGENASE AND CITRIC ACID” (Bayer AG, priority 2020, dated 2021).

For the series the following is noted: commercially available brands of surfactants of structure (II).
For the substance “Polyoxyethylene (16) sorbitan monolaurate [Tween® 24]”, the “Log P” value is given as 0.26.
With Tween® 21, the “Log P” value was 2.71.
With Tween® 40, the “Log P” value is 1.47.
Tween® 20: the “Log P” value is -0.55.
In the case of Tween® 80, the “Log P” value is 1.99.
Regarding Tween® 60, the “Log P” value is recorded as 2.48.

For orientation: Log P means the decadic logarithm of the partition coefficient of the neutral form, usually between octanol and water.
